The target of the experiment is T1, Calpain-1 catalytic subunit (Homo sapiens, UniProt P07384).
T1 sequence (P07384 whole entry): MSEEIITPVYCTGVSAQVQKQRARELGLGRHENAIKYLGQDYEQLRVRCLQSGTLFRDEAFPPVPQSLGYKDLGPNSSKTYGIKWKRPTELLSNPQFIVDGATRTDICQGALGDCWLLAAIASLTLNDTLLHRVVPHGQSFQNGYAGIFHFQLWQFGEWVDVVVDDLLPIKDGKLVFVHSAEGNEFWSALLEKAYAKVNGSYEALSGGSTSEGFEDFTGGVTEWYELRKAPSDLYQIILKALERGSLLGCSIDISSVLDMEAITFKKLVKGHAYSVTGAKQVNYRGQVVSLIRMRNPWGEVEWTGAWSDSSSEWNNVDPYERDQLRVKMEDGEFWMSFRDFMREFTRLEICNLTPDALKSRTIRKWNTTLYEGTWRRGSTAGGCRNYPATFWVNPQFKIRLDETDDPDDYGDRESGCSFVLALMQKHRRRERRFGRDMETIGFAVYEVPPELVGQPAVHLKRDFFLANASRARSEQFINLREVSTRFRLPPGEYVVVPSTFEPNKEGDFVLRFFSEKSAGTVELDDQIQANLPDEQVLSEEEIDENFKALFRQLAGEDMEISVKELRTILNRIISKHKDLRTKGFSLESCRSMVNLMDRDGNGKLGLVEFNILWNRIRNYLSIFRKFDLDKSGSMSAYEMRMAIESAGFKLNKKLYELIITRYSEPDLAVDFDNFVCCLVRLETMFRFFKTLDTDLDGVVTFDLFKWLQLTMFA
The experiment in a line: Inhibition of human mu-calpain.

Structures are written as SMILES. Some results are limits rather than exact numbers.

Turning to `Cc1c(C(=O)N[C@@H](Cc2ccccc2)C(=O)C(N)=O)oc2ccccc2c1=O`, inhibition was half-maximal at 0.04 µM (IC50).
Regarding `Cc1c(C(=O)N[C@@H](Cc2ccccc2)C(=O)C(=O)NCc2ccccc2)[nH]c2ccccc2c1=O`, it took 5.01 µM to reach half-maximal inhibition (IC50).
The result for `COc1ccc(CNC(=O)C(=O)[C@H](Cc2ccccc2)NC(=O)c2[nH]c3ccccc3c(=O)c2C)cc1OC` reads 1.78 µM; that for `Cc1c(C(=O)N[C@@H](Cc2ccccc2)C(=O)C(=O)NCc2ccc(F)cc2)[nH]c2ccccc2c1=O`, 5.63 µM; that for `Cc1c(C(=O)N[C@@H](Cc2ccccc2)C(=O)C(=O)NCc2ccccn2)nc2ccccc2c1O`, 7.72 µM.
In the case of `COc1ccc(CCNC(=O)C(=O)[C@H](Cc2ccccc2)NC(=O)c2[nH]c3ccccc3c(=O)c2C)cc1`, the 50% inhibitory concentration (IC50) (usually the concentration that inhibits the measured activity by half) was determined as 0.73 µM.
Then `Cc1c(C(=O)N[C@@H](Cc2ccccc2)C(=O)C(=O)NCCc2ccccn2)[nH]c2ccccc2c1=O`, with 6.28 µM; and `Cc1c(C(=O)N[C@@H](Cc2ccccc2)C(=O)C(N)=O)nc2ccccc2c1O`, with 0.71 µM.
The result for `CNC(=O)C(=O)[C@H](Cc1ccccc1)NC(=O)c1[nH]c2ccccc2c(=O)c1C` reads 8.62 µM.
The result for `CCNC(=O)C(=O)[C@H](Cc1ccccc1)NC(=O)c1nc2ccccc2c(O)c1C` reads 40.2 µM; that for `COc1ccc(CNC(=O)C(=O)[C@H](Cc2ccccc2)NC(=O)c2nc3ccccc3c(O)c2C)cc1`, 3.81 µM; that for `Cc1c(C(=O)N[C@@H](Cc2ccccc2)C(=O)C(=O)NCCc2ccccc2)nc2ccccc2c1O`, 3.71 µM.
In the case of `Cc1c(C(=O)N[C@@H](Cc2ccccc2)C(=O)C(=O)NC(C)C)nc2ccccc2c1O`, the IC50 was above 50 µM.

Source of the values: ChEMBL document CHEMBL1140783, “Design and synthesis of 4-quinolinone 2-carboxamides as calpain inhibitors” (Bioorg Med Chem Lett, 2008).
